Test results published in patent US20020049250A1, “PPAR receptor activator compounds for treating cutaneous disorders/afflictions” (priority 1999, published 2002).

How the values were obtained:
Type in all cases: cell-based
PPAR-α = target: T1, PPAR-α (Homo sapiens, UniProt Q07869); test: PPAR-type receptor transactivation test (luciferase reporter), PPAR-α; conditions: for Emax: HeLa, 24 h, read-out: % activation α; for AC50 / % activation α: cotransfected HeLa cells treated 24 hours; for AC50: luciferase, concentration giving 50% of the activity of reference molecule; for % activation α: luciferase activity, relative to reference molecule Reference 1
T1 construct: expressed in transfected cells; host or cells: HeLa cells
T1 sequence (Q07869 1-468): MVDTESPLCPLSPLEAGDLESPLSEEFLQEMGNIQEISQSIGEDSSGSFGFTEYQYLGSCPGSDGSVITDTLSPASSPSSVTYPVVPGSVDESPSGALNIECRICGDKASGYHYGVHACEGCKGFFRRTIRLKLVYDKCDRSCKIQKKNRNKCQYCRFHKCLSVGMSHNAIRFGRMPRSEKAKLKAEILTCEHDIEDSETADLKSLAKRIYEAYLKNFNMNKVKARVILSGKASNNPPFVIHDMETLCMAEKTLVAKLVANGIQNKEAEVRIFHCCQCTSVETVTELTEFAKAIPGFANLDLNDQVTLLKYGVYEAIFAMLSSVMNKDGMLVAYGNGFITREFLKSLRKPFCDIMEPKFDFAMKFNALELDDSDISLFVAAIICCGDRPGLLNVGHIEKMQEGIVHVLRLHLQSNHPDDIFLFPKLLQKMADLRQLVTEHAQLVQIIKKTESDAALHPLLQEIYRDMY
Protocol: (§1) This activity is determined with the aid of a reporter enzyme (luciferase) for activation due to the compound via one of the PPAR receptors.
(§2) The biological tests carried out correspond to those described above. […] Thus, the activating power via PPAR-α, PPAR-γ or PPAR-δ of molecules may be evaluated with a transactivation test in which HeLa cells were cotransfected with an expression vector encoding these receptors and a reporter plasmid containing a PPRE response element cloned upstream of part of an SV40 virus promoter and of the luciferase gene. The cotransfected cells were treated for 24 hours with the molecules to be tested and the luciferase activity was determined by luminescence.

PPAR-γ = target: T2, PPAR-γ (Homo sapiens, UniProt P37231); test: PPAR-type receptor transactivation test (luciferase reporter), PPAR-γ; conditions: for Emax: HeLa, 24 h, read-out: % activation γ; for AC50 / % activation γ: cotransfected HeLa cells treated 24 hours; for AC50: luciferase, concentration giving 50% of the activity of reference molecule; for % activation γ: luciferase activity, relative to reference molecule Reference 2
T2 construct: expressed in transfected cells; host or cells: HeLa cells
T2 sequence (P37231 1-505): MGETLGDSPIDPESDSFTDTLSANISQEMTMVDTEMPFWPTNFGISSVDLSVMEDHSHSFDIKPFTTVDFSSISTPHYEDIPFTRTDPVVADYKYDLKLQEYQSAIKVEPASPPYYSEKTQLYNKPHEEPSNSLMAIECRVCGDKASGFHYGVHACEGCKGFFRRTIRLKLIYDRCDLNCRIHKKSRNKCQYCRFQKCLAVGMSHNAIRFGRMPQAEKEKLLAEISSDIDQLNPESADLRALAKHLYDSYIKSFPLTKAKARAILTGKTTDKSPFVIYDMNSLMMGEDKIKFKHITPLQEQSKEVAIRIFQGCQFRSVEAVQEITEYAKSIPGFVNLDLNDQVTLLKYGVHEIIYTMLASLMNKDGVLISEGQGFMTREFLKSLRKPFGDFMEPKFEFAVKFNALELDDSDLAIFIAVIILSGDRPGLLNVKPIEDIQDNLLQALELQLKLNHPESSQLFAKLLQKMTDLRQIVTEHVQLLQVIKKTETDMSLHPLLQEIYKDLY
Protocol: as §1, §2

PPAR-β = target: T3, PPAR-β (Homo sapiens, UniProt Q03181); test: PPAR-type receptor transactivation test (luciferase reporter), PPAR-β; conditions: for Emax: HeLa, 24 h, read-out: % activation β; for AC50 / % activation β: cotransfected HeLa cells treated 24 hours; for AC50: luciferase, concentration giving 50% of the activity of reference molecule; for % activation β: luciferase activity, relative to reference molecule Reference 2
T3 construct: expressed in transfected cells; host or cells: HeLa cells
T3 sequence (Q03181 1-441): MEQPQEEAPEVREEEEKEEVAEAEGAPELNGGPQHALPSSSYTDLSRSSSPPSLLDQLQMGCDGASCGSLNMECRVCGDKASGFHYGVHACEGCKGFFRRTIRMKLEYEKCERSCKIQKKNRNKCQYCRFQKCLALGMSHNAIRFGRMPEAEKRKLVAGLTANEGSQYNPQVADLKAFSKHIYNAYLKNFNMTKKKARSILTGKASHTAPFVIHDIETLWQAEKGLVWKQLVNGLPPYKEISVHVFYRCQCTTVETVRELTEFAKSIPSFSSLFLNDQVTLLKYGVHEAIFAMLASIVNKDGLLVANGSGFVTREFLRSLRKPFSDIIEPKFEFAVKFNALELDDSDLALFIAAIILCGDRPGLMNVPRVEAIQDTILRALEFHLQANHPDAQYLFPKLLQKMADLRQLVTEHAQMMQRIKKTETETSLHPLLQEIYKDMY
Protocol: as §1, §2

COc1ccc(C(O)c2ccc(C(=O)O)cc2)cc1C12CC3CC(CC(C3)C1)C2 (stereo not shown) [Comparative Example 6, 4-[(3-adamantan-1-yl-4-methoxyphenyl)hydroxymethyl]benzoic acid]
Emax (PPAR-α): 4%
Emax (PPAR-γ): 7%
Emax (PPAR-β): 16%

CC(C)(C)c1ccc(C(=O)c2ccc3cc(C(=O)O)ccc3c2)cc1 [Compound 3, 6-(4-tert-butylbenzoyl)naphthalene-2-carboxylic acid]
Emax (PPAR-α): 63%
AC50 (PPAR-α): 1000 nM
Emax (PPAR-γ): 148%
AC50 (PPAR-γ): 360 nM
Emax (PPAR-β): 277%
AC50 (PPAR-β): 300 nM

O=C(O)c1ccc2cc(C(=O)c3ccc4c(c3)CCCC4)ccc2c1 [Compound 4, 6-(5,6,7,8-tetrahydronaphthalene-2-carbonyl)naphthalene-2-carboxylic acid]
Emax (PPAR-α): 40%
AC50 (PPAR-α): 2000 nM
Emax (PPAR-γ): 174%
AC50 (PPAR-γ): 800 nM
Emax (PPAR-β): 291%
AC50 (PPAR-β): 500 nM

CC1(C)CCOc2ccc(C(=O)c3ccc4cc(C(=O)O)ccc4c3)cc21 [Compound 5, 6-(4,4-dimethylchroman-6-carbonyl)naphthalene-2-carboxylic acid]
Emax (PPAR-α): 16%
Emax (PPAR-γ): 36%
Emax (PPAR-β): 92%

CC1(C)CCc2cc(C(=O)c3ccc4cc(C(=O)O)ccc4c3)ccc2O1 [Compound 2, 6-(2,2-dimethylchroman-6-carbonyl)naphthalene-2-carboxylic acid]
Emax (PPAR-α): 48%
AC50 (PPAR-α): 900 nM
Emax (PPAR-γ): 190%
AC50 (PPAR-γ): 1500 nM
Emax (PPAR-β): 280%
AC50 (PPAR-β): 700 nM

CCCCOC(c1ccc2c(c1)C(C)(C)CCC2(C)C)c1ccc2cc(C(=O)O)ccc2c1 (stereo not shown) [Comparative Example 1, 6-[butoxy(5,5,8,8-tetramethyl-5,6,7,8-tetrahydronaphthalen-2-yl)methyl]naphthalene-2-carboxylic acid]
Emax (PPAR-α): 0%
Emax (PPAR-γ): 7%
Emax (PPAR-β): 28%

6-(2,4-diisopropylbenzoyl)napthalene-2-carboxylic acid [compound 3]
% activation α (PPAR-α): 6%
% activation γ (PPAR-γ): 3%
% activation β (PPAR-β): 19%

COc1cc(C(=O)c2ccc3cc(C(=O)O)ccc3c2)ccc1C12CC3CC(CC(C3)C1)C2 [compound 5, 6-(4-adamantan-1-yl-3-methoxybenzoyl)naphthalene-2-carboxylic acid]
Emax (PPAR-α): 6%
Emax (PPAR-γ): 3%
Emax (PPAR-β): 8%

COc1ccc(C(=O)c2ccc3cc(C(=O)O)ccc3c2)cc1-c1ccccc1 [Comparative Example 4, 6-(6-methoxybiphenyl-3-carbonyl)napthalene-2-carboxylic acid]
% activation α (PPAR-α): 6%
% activation γ (PPAR-γ): 2%
% activation β (PPAR-β): 23%

Cc1cccc(Nc2cc(Cl)nc(SCC(=O)O)n2)c1C [Reference 1, [4-chloro-6-(2,3-dimethylphenylamino)pyrimidin-2-ylsulphanyl]acetic acid]
% activation α (PPAR-α): 100%

C-(6-carboxynaphthalen-2-yl)-C-(5,5,8,8-tetramethyl-5,6,7,8-tetrahydronaphthalen-2-yl)methylammonium [compound 2]
% activation α (PPAR-α): 1%
% activation γ (PPAR-γ): 13%
% activation β (PPAR-β): 1%

COc1ccc(C(=O)c2ccc(C(=O)O)cc2)cc1C12CC3CC(CC(C3)C1)C2 [compound 7, 4-(3-adamantan-1-yl-4-methoxybenzoyl)benzoic acid]
Emax (PPAR-α): 0%
Emax (PPAR-γ): 0%
Emax (PPAR-β): 23%
